Results reported in patent publication US7098024B2, “Depsipeptide compound” (Astellas Pharma Inc., priority 1999, dated 2006).

How the values were obtained:
Type in all cases: cell-based
HeLa S3 cells = assay: Measurement of cytotoxic activity for human cancer cells (1), Cell Counting Kit; settings: 72 h, cultured 3 days, read-out: IC50 value, cytotoxic activity (growth inhibition) for HeLa S3 cells
Description: Measurement of cytotoxic activity for human cancer cells (1)
HeLa S3 cells adjusted to a density of 6×10^4 cells/ml were dispensed in 200 μl portions, and various concentrations of the compound A and compound B respectively in 4 μl portions, into a 96 well test plate, and cultured at 37° C. for 3 days in a CO2 incubator. After the culturing, the degree of cell growth was measured using Cell Counting Kit (mfd. by DOJINDO), and the growth inhibition ratio at each concentration was obtained to calculate the IC50 value.

[1] = test system: Human colon cancer WiDr cells; assay: Measurement of cytotoxic activity for human cancer cells (2), Sulforhodamine B, WiDr; settings: 72 hours
Description: (§1) Measurement of cytotoxic activity for human cancer cells (2)
(§2) Human colon cancer WiDr cells adjusted to a density of 6×10^4 cells/ml, human non-small cell lung carcinoma A549 cells adjusted to a density of 4×10^4 cells/ml or human prostate cancer DU-145 cells adjusted to a density of 6×10^4 cells/ml were dispensed into a 96 well test plate and cultured at 37° C. in a CO2 incubator. After 24 hours, varied concentration of the compound A, compound B or compound C was dispensed in 100 μl portions, and the cells were cultured at 37° C. for additional 72 hours in a CO2 incubator. After the culturing, the number of cells was determined using Sulforhodamine B, and the IC50 value of each compound for cell growth was calculated.

[2] = test system: human non-small cell lung carcinoma A549 cells; assay: Measurement of cytotoxic activity for human cancer cells (2), Sulforhodamine B, A549; settings: 72 hours; for IC50: Homo sapiens, read-out: IC50 value for cell growth, A549 cells
Description: as §1, §2

[3] = test system: human prostate cancer DU-145 cells; assay: Measurement of cytotoxic activity for human cancer cells (2), Sulforhodamine B, DU-145; settings: 72 hours
Description: as §1, §2

[4] = test system: PAI-1 promoter gene expression in mink lung epithelial cells (MvlLu); assay: Measurement of TGF-β like activity, PAI-1 promoter luciferase reporter
Excerpt: Measurement of TGF-β like activity
In order to detect the TGF-β like activity, a screening system was constructed making use of the expression of a reporter gene. A fluorescent luciferase gene was transfected into downstream of the PAI-1 promoter gene of mink lung epithelial cells (MvlLu). in which expression of […] (PAI-1) is induced by TGF-β due to excess expression of TGF-β receptor (Journal of Biological Chemistxy, vol. 262, pp. 17467–17414, 1987), (Analytical Biochemistry, vol. 216, pp. 276–284, 1994).
Using the above cells, the luminous intensity obtained by adding each compound was used as the index of TGF-β like activity.

Compound | IC50 (HeLa S3 cells) | cell growth inhibition activity for WiDr cells [1] | cell growth inhibition activity for A549 cells [2] | IC50 [2] | cell growth inhibition activity for DU-145 cells [3] | luminous intensity induced by the expression of PAI-1 promoter gene [4]
CCC(C)C1NC(=O)C2CSSCC/C=C/C(CC(=O)NC(C)C(=O)N2)OC(=O)CC1O (stereo not drawn) [Compound B] | 1200 nM | excellent cell growth inhibition activity | excellent cell growth inhibition activity | ≤ 5 nM | excellent cell growth inhibition activity | 
CC(C)CC1NC(=O)C2CSSCC/C=C/C(CC(=O)NC(C)C(=O)N2)OC(=O)CC1O (stereo not drawn) [Compound C] |  | excellent cell growth inhibition activity | excellent cell growth inhibition activity | ≤ 5 nM | excellent cell growth inhibition activity | 
TGF-β |  |  |  |  |  | increased the luminous intensity
CC1NC(=O)CC2/C=C/CCSSCC(NC1=O)C(=O)NC(C(C)C)C(O)CC(=O)O2 (stereo not drawn) [Compound A] | 1600 nM | excellent cell growth inhibition activity | excellent cell growth inhibition activity | ≤ 5 nM | excellent cell growth inhibition activity | 
